This test has as its target T1, fibrinogen binding to platelets (glycoprotein IIb/IIIa) (Homo sapiens, UniProt P05106+P08514).
T1 construct: Washed human platelets were prepared from platelet-rich plasma by gel filtration; from tissue
The experiment in a line: Test 1: Fibrinogen Binding to Platelets (FITC-fibrinogen, flow cytometry). To be noted: washed human platelets activated with 20 μM ADP, fixed; 10 μg/ml FITC-fibrinogen; 30 minutes at room temperature; read-out: IC50 (dose required to inhibit the binding by 50%). As for the experimental part: Test 1: Fibrinogen Binding to Platelets
Washed human platelets were prepared from platelet-rich plasma by gel filtration. The washed platelets were activated with 20 μM ADP for 10 minutes and then fixed for 30 minutes with 0.8% paraformaldehyde. The platelets were then washed by centrifugation and suspended in HEPES-Tyrodes buffer containing […].
350 μl of platelets were incubated at a final concentration of 2×10^8/ml with 10 μg/ml FITC-fibrinogen and test compound. The reaction was left for 30 minutes at room temperature. The FITC fluoresence of bound fibrinogen was measured by using a FACS can flow cytometer.
Specific binding was calculated by subtracting the binding in the presence of 50-fold excess unlabeled fibrinogen. Result was expressed at IC50 value, i.e. dose required to inhibit the binding by 50%.

T1 sequence (P08514 32-887 limits assumed): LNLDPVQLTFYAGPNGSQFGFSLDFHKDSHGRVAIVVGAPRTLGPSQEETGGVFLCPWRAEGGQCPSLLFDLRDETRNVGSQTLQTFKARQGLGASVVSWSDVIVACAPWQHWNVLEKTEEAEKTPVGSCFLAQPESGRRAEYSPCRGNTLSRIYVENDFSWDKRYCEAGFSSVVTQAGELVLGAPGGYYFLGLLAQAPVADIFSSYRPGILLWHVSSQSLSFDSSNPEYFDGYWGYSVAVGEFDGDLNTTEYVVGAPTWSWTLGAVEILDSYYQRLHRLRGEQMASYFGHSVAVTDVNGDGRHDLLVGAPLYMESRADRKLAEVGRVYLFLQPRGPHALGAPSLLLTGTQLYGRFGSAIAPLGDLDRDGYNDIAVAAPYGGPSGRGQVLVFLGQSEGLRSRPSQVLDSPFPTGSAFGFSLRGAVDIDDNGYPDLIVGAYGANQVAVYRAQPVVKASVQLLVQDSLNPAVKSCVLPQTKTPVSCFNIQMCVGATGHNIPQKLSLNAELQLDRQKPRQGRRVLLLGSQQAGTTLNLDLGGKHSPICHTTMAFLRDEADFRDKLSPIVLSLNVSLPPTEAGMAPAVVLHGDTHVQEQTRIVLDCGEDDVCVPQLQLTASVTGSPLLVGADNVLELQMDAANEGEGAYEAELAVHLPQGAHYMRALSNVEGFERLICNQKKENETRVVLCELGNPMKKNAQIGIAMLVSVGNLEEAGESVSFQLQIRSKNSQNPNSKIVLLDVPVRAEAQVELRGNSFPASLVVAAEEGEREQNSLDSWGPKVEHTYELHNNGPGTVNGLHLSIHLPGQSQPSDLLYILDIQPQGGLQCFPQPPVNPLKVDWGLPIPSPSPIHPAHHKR
T1 sequence (P08514 891-1039 limits assumed): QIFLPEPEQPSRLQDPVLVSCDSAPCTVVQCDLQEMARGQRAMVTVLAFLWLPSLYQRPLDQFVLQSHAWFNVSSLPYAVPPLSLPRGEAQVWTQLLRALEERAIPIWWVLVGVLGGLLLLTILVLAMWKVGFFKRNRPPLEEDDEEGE
T1 sequence (P05106 27-788): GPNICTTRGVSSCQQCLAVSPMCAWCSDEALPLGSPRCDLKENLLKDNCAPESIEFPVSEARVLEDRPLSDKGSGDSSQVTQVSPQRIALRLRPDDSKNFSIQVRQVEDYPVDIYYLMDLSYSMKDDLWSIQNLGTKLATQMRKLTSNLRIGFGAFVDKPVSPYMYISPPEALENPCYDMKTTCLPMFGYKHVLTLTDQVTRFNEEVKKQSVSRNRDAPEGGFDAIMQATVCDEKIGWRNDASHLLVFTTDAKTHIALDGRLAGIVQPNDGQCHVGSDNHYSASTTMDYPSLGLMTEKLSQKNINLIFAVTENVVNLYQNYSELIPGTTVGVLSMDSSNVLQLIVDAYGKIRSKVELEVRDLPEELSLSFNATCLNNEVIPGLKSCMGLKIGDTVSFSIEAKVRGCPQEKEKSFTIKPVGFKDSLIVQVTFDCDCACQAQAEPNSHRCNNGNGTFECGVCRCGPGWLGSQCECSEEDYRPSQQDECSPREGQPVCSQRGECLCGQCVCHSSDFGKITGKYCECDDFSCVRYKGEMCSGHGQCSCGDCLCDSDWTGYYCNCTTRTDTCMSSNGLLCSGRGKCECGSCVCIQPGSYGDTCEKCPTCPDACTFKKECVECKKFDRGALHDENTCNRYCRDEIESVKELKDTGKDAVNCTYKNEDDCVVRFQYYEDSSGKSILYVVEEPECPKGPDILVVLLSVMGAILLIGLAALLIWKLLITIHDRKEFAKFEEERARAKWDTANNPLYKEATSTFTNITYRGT

In the case of `CC(=O)NC(CNC(=O)[C@@H]1CCCN(C(=O)CCC2CCNCC2)C1)C(=O)O` (stereo partly shown) [Example 1], the IC50 turned out to be 0.016 µM.

The IC50 is the concentration at which inhibition is half-maximal.

Source of the values: US20010016571A1, “N-[ (R) -1-{3- (4- piperidyl) propionyl } -3-piperidylcarbonyl] -2 (S) -acetylamino-beta -alanine as fibrinogen receptor antagonist” (FUJISAWA PHARMACEUTICAL CO., LTD., priority 1996, published 2001).
